# Measured values reported in ChEMBL document CHEMBL1150311, “4-Methyl-5-phenyl triazoles as selective inhibitors of 11beta-hydroxysteroid dehydrogenase type I” (Bioorg Med Chem Lett, 2008).
# Tests used:
# [1] = target: T1, 11-beta-hydroxysteroid dehydrogenase type 2 (Mus musculus, UniProt P51661); experiment: Inhibition of mouse 11beta HSD2
# T1 sequence (P51661 whole entry): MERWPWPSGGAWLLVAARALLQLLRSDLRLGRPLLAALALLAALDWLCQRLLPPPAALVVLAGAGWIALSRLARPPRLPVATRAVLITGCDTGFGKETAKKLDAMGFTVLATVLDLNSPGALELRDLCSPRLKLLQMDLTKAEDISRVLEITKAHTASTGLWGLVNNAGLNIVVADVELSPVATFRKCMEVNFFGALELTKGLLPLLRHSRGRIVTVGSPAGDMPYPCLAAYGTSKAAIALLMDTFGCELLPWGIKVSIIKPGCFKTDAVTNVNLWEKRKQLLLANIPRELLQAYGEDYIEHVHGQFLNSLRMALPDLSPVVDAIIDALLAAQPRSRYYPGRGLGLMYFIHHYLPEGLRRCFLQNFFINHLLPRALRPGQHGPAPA
# Mus musculus [2] = experiment: Inhibition of [3H]cortisone to [3H]cortisol conversion in mouse at 10 mg/kg, po administered as single dose after 16 hrs; type: functional
# [3] = target: T2, Nuclear receptor subfamily 1 group I member 2 (Homo sapiens, UniProt O75469); experiment: Agonist activity at human PXR at 10 uM; type: functional
# T2 sequence (O75469 whole entry): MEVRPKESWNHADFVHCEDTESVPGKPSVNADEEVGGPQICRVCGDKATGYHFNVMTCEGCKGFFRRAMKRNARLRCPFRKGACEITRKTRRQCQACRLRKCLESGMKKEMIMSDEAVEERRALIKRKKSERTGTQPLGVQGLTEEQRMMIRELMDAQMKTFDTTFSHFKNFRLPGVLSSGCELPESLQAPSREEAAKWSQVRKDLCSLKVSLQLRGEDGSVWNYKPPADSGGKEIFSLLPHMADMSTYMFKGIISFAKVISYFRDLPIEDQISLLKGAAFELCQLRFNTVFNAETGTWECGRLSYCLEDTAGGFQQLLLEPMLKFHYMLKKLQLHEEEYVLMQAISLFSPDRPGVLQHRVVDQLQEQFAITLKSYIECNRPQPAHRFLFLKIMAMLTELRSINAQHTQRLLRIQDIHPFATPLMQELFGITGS
# [4] = target: T2, Nuclear receptor subfamily 1 group I member 2; experiment: Agonist activity at human PXR; type: functional
# [5] = target: T3, 11-beta-hydroxysteroid dehydrogenase type 2 (Homo sapiens, UniProt P80365); experiment: Inhibition of human 11beta HSD2
# T3 sequence (P80365 whole entry): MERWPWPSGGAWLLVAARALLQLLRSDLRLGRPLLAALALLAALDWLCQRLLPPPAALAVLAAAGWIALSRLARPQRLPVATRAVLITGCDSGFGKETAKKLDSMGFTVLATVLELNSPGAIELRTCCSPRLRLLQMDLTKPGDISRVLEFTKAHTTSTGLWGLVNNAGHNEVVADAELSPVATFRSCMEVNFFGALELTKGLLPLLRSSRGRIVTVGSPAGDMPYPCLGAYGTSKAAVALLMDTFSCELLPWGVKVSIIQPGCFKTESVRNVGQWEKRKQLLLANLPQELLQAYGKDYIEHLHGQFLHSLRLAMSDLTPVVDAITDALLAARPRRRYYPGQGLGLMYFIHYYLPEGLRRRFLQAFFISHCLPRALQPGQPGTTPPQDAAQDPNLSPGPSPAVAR
# [6] = target: 11-beta-hydroxysteroid dehydrogenase 1 (Mus musculus, UniProt P50172); experiment: Inhibition of mouse 11beta HSD1 by SPA assay
# Chain of 11-beta-hydroxysteroid dehydrogenase 1 (Mus musculus, UniProt P50172) (P50172 whole entry): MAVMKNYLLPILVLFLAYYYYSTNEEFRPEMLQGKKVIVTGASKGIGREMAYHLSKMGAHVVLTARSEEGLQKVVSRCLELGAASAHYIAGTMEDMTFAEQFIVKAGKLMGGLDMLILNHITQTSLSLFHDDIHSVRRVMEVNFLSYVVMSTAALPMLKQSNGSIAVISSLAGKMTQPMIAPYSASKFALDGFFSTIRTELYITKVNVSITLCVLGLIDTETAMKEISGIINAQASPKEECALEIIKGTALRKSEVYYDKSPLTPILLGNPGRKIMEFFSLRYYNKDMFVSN
# [7] = target: 11-beta-hydroxysteroid dehydrogenase 1 (Homo sapiens, UniProt P28845); experiment: Inhibition of human 11beta HSD1 by SPA assay
# Chain of 11-beta-hydroxysteroid dehydrogenase 1 (Homo sapiens, UniProt P28845) (P28845 whole entry): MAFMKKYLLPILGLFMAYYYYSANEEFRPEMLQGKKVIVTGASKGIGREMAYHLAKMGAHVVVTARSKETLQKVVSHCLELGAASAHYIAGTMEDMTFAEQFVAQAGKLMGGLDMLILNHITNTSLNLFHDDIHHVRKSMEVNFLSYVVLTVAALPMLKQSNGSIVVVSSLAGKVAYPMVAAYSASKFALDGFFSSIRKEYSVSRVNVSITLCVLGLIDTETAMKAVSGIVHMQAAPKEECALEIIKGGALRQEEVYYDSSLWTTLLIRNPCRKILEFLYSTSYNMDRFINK
# Mus musculus [8] = experiment: Inhibition of [3H]cortisone to [3H]cortisol conversion in mouse at 10 mg/kg, po administered as single dose after 4 hrs; type: functional
# [9] = target: T4, 11-beta-hydroxysteroid dehydrogenase type 2 (Homo sapiens) (UniProt P80365); settings: at 4 µM
# T4 sequence (whole entry): T3 sequence (P80365 whole entry)
# Description: Inhibition of human 11beta HSD2 at 4 uM
SMILES,IC50 [1] [nM],Activity [3] [%],EC50 [4] [nM],IC50 [5] [nM],IC50 [6] [nM],IC50 [7] [nM],inhibition [9] [%],inhibition in vivo at 10 mg/kg (Mus musculus [2]) [%],inhibition in vivo at 10 mg/kg (Mus musculus [8]) [%]
Cn1c(-c2ccc(-c3ccc(S(C)(=O)=O)cc3)cc2Cl)nnc1C1(c2ccc(Cl)cc2)CCC1,> 4000,2,> 25000,> 4000,1.2,1.7,,-5,20
Cn1c(-c2ccc(-c3ccncc3)cc2Cl)nnc1C1(c2ccc(Cl)cc2)CCC1,> 4000,42,7700,,2,1,,8,39
Cc1nccn1-c1ccc(-c2nnc(C3(c4ccc(Cl)cc4)CCC3)n2C)c(Cl)c1,> 4000,22,> 25000,,9.6,2.6,,,
CCS(=O)(=O)c1ccc(-c2ccc(-c3nnc(C4(c5ccc(Cl)cc5)CCC4)n3C)c(Cl)c2)cc1,> 4000,-8,> 25000,,0.98,2.1,75,16,71
Cn1c(-c2ccc(-n3ccnc3)cc2Cl)nnc1C1(c2ccc(Cl)cc2)CCC1,> 4000,21,12000,,2.8,1,,10,78
Cn1c(-c2ccc(-c3cccc(S(C)(=O)=O)c3)cc2Cl)nnc1C1(c2ccc(Cl)cc2)CCC1,> 4000,-5,> 25000,> 4000,0.98,0.98,,36,96
Cn1c(-c2ccc(-c3cccnc3)cc2Cl)nnc1C1(c2ccc(Cl)cc2)CCC1,> 4000,35,3600,,1.3,1,,26,100
CCS(=O)(=O)c1cccc(-c2ccc(-c3nnc(C4(c5ccc(Cl)cc5)CCC4)n3C)c(Cl)c2)c1,> 4000,-31,25000,,0.98,0.98,59,29,93

# Stronger by EC50 [4], values ahead:
IC50 [1] [nM],Activity [3] [%],EC50 [4] [nM],IC50 [5] [nM],IC50 [6] [nM],IC50 [7] [nM],inhibition [9] [%],SMILES,inhibition in vivo at 10 mg/kg (Mus musculus [2]) [%],inhibition in vivo at 10 mg/kg (Mus musculus [8]) [%]
> 4000,24,3200,,0.96,0.98,,Cn1c(-c2ccc(-n3ccnc3C(F)(F)F)cc2Cl)nnc1C1(c2ccc(Cl)cc2)CCC1,20,58
> 4000,98,2400,,1.4,1,,Cn1c(-c2ccc(-c3ccccn3)cc2Cl)nnc1C1(c2ccc(Cl)cc2)CCC1,-5,41
,,1700,,1.4,1,,Cn1c(-c2ccc(-c3ccccc3)cc2Cl)nnc1C1(c2ccc(Cl)cc2)CCC1,85,99
> 4000,48,1700,,4.7,11,54,CCSc1ccccc1-c1ccc(-c2nnc(C3(c4ccc(Cl)cc4)CCC3)n2C)c(Cl)c1,1,51
> 4000,13,1300,,6,9.8,,Cc1cn(-c2ccc(-c3nnc(C4(c5ccc(Cl)cc5)CCC4)n3C)c(Cl)c2)c(C2CC2)n1,7,60
> 4000,74,700,> 4000,1.2,0.98,,CCS(=O)(=O)c1ccccc1-c1ccc(-c2nnc(C3(c4ccc(Cl)cc4)CCC3)n2C)c(Cl)c1,6,56
